Key:
MMP-9 = MMP-9 (Homo sapiens, UniProt P14780); experiment: MMP-9 inhibition (thiopeptide or fluorescent peptide substrate); assay type: biochemical
Procedure: (§1) The enzyme activity is measured by the rate of the color increase. The thiopeptide substrate is made up fresh as a 20 mM stock in 100% DMSO and the DTNB is dissolved in 100% DMSO as a 100 mM stock and stored in the dark at room temperature. Both the substrate and DTNB are diluted together to 1 mM with substrate buffer (50 mM HEPES pH 7.5, 5 mM CaCl2) before use. The stock of enzyme is diluted with buffer (50 mM HEPES, pH 7.5, 5 mM CaCl2, 0.02% Brij) to the desired final concentration.
(§2) Alternatively, a fluorescent peptide substrate is used. In this test procedure, the peptide substrate contains a fluorescent group and a quenching group. Upon cleavage of the substrate by an MMP, the fluorescence that is generated is quantitated on the fluorescence plate reader. The assay is run in HCBC assay buffer (50mM HEPES, pH 7.0, 5 mM Ca^+2, 0.02% Brij, 0.5% Cysteine), with human recombinant MMP-1, MMP-9, or MMP-13. The substrate is dissolved in methanol and stored frozen in 1 mM aliquots. For the assay, substrate and enzymes are diluted in HCBC buffer to the desired concentrations. Compounds are added to the 96 well plate containing enzyme and the reaction is started by the addition of substrate.
(§3) For either the thiopeptide or fluorescent peptide test procedures, the slope of the line is calculated and represents the reaction rate. The linearity of the reaction rate is confirmed (r^2 >0.85). The mean (x±sem) of the control rate is calculated and compared for statistical significance (p<0.05) with drug-treated rates using Dunnett's multiple comparison test.

MMP-1 = biological target: T1, MMP-1 (Homo sapiens, UniProt P03956); experiment: MMP-1 inhibition (thiopeptide or fluorescent peptide substrate); assay type: biochemical; details: for IC50: plain number = IC50; for inhibition at 10 µM: read-out: IC50 (nM) or % Inhibition (µM) MMP-1
T1 sequence (P03956 100-469): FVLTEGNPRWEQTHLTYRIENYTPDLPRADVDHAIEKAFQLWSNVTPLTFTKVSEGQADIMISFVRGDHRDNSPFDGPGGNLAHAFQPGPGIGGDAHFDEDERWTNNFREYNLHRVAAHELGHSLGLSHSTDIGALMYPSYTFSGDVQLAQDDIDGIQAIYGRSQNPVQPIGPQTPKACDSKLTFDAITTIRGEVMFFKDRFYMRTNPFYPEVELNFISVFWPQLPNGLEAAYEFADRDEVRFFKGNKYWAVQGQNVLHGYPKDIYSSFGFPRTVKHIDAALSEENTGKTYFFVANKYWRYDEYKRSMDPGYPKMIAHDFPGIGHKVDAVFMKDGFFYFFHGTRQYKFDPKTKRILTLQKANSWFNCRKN
Procedure: as §1, §2, §3

MMP-13 = MMP-13 (Homo sapiens, UniProt P45452); experiment: MMP-13 inhibition (thiopeptide or fluorescent peptide substrate); assay type: biochemical
Procedure: as §1, §2, §3

[1] = biological target: TNF-α converting enzyme (TACE) (Homo sapiens, UniProt P78536); experiment: TACE inhibition (fluorescent peptidyl substrate); assay type: biochemical; details: read-out: IC50 (nM) or % Inhibition (µM) TACE
TNF-α converting enzyme (TACE), sequence (P78536 215-824, species assumed): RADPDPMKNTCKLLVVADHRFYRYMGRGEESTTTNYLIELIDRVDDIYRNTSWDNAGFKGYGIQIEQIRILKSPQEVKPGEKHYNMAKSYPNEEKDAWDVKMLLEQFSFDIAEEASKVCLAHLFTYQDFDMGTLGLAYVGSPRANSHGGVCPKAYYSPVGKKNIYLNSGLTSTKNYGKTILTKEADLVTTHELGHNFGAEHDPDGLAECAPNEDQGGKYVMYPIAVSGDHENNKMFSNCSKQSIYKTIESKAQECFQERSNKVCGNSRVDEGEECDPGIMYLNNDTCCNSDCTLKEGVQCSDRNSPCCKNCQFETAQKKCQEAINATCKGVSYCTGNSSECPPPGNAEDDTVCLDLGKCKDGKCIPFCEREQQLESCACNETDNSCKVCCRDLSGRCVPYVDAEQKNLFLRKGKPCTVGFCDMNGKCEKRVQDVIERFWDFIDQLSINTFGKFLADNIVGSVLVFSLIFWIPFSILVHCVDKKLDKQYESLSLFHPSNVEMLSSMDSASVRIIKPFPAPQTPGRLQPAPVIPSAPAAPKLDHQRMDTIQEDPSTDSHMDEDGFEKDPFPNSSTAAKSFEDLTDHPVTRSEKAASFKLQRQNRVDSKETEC
Procedure: Using 96-well black microtiter plates, each well receives a solution composed of 10 µL TACE (final concentration 1µg/mL), 70µL Tris buffer, pH 7.4 containing 10% glycerol (final concentration 10 mM), and 10 µL of test compound solution in DMSO (final concentration 1µM, DMSO concentration <1%) and incubated for 10 minutes at room temperature. The reaction is initiated by addition of a fluorescent peptidyl substrate (final concentration 100 µM) to each well and then shaking on a shaker for 5 sec.
The reaction is read (excitation 340 nm, emission 420 nm) for 10 min. and the increase in fluorescence over time is plotted as a linear line. The slope of the line is calculated and represents the reaction rate.
The linearity of the reaction rate is confirmed (r^2 >0.85). The mean (x±sem) of the control rate is calculated and compared for statistical significance (p<0.05) with drug-treated rates using Dunnett's multiple comparison test.

THP-1 cells = experiment: THP-1 soluble protein assay (LPS-stimulated human monocytic THP-1 cells); assay type: cell-based; details: LPS-stimulated THP-1 cells; for inhibition at 3 µM: Homo sapiens, read-out: % Inhib. @ 3µM THP
Source text: Mitogenic stimulation of THP-1 cells cause differentiation into macrophage like cells with concomitant secretion of tumor necrosis factor (TNF-a) and TNF receptor (TNF-R p75/80 and TNF-R p55/60) and Interleukin-8 (IL-8), among other proteins. In addition, non-stimulated THP-1 cells shed both the p75/80 and the p55/60 receptors over time. The release of membrane bound TNF-α and possibly TNF-R p75/80 and TNF-R p55/60, but not IL-8, is mediated by an enzyme called TNF-a converting enzyme or TACE.
THP-1 cells (from ATCC) are a human monocytic cell line which were obtained from the peripheral blood of a person with acute monocytic leukemia. They can be grown in culture and differentiated into macrophage like cells by stimulation with mitogens.
Each vial of cells are cultured for about two weeks prior to being used for an assay and then are used for only 4 to 6 weeks to screen compounds.
Cell exposure to DMSO was limited to 0.1 % final concentration. […] Compounds can be evaluated for their effect on basal (non-stimulated) shedding of the receptors by replacing the LPS with […] of THP-1 media. Plates are placed into an incubator set at 5% CO2 and at 37°C. After 4 hours of incubation, […] of tissue culture supernatant (TCS) is removed for use in an TNF-a ELISA. Following 24 hours of incubation, […] of TCS is removed and used for analysis in TNF-R p75/80, TNF-R p55/60 and IL-8 ELISAs.
In addition, at the 24 hours timepoint, and the cells for each treatment group are collected by resuspension in 500 µl/well of THP-1 media and transferred into a FACS tube. […] The samples are run on a Becton Dickinson FaxCaliber FLOW cytometry machine and the amount of dye taken up by each cell is measured in the high red wavelength (FL3). Only cells with compromised membranes (dead or dying) can take up PI. The percent of live cells is calculated by the number of cells not stained with PI, divided by the total number of cells in the sample. The viability values calculated for the drug treated groups were compared to the viability value calculated for the vehicle treated mitogen stimulated group ("vehicle positive control") to determine the "percent change from control". This "percent change from control" value is an indicator of drug toxicity.
The quantity of soluble TNF-a, TNF-R p75/80 and TNF-R p55/60 and IL-8 in the TCS of the THP-1 cell cultures are obtained with commercially available ELISAs from R&D Systems, by extrapolation from a standard curve generated with kit standards. The number of cells that either take up or exclude PI are measured by the FLOW cytometry machine and visualized by histograms using commercially available Cytologic software for each treatment group including all controls.
Biological variability in the magnitude of the response of THP-1 cell cultures requires that experiments be compared on the basis of percent change from "vehicle positive control" for each drug concentration. Percent change in each soluble protein evaluated from the "vehicle positive control" was calculated for each compound concentration with the following formula: % Change =(pg/ml(compound) - pg/ml (veh pos control))/(pg/ml (veh pos control) - pg/ml(veh neg control))x 100 [formula]
For the soluble protein (TNF-a, p75/80, p55/60, IL-8) studies under stimulated conditions, the mean pg/ml of duplicate wells were determined and the results expressed as percent change from "vehicle positive control". For the soluble protein (p75/80 and p55/60 receptors) studies under non-stimulated conditions, the mean pg/ml of duplicate wells were determined and the results expressed as percent change from "vehicle positive control" utilizing the following formula: % Change =(pg/ml (compound neg control) - pg/ml (veh neg control)/(pg/ml (veh neg control))X 100 [formula]
IC50 values for each compound are calculated by non-linear regression analysis using customized software utilizing the JUMP statistical package.

MMP-9, sequence (P14780 94-707): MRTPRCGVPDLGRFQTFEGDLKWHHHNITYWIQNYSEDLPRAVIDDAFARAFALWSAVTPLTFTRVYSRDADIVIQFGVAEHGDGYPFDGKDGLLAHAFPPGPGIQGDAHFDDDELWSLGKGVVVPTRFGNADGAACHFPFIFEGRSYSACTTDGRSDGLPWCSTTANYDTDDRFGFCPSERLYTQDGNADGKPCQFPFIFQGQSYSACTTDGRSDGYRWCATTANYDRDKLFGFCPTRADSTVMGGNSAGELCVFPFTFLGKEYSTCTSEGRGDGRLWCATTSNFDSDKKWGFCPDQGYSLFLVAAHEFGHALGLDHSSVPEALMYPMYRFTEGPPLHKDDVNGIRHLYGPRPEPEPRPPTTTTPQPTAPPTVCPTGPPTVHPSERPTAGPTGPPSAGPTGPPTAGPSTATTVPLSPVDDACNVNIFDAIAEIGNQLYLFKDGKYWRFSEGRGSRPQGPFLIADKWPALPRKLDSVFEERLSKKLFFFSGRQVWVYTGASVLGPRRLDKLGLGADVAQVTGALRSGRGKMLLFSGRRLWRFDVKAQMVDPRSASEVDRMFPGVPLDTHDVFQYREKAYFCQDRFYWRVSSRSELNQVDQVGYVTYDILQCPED

Molecule	IC50 (MMP-9)	IC50 (MMP-1)	IC50 (MMP-13)	IC50 [1]	inhibition at 10 µM (MMP-1)	% Inhib. @ 3µM THP (THP-1 cells)	inhibition at 3 µM (THP-1 cells)
5-Bromo-2-[(4-butoxy-benzenesulfonyl)-methyl-amino]-N-hydroxy-3-methyl-benzamide [Example 39]	21 nM	2490 nM	68 nM	67 nM	–	0%	–
Cc1cc(Br)cc(C(=O)NO)c1N(C)S(=O)(=O)c1ccc(OCC#CCNC2CCC2)cc1 [Example 31, 5-Bromo-2-{[4-(4-cyclobutylamino-but-2-ynyloxy)-benzenesulfonyl]-methyl-amino}-N-hydroxy-3-methyl-benzamide]	301 nM	–	724 nM	44 nM	19%	–	6%
CNCC#CCOc1ccc(S(=O)(=O)N(C)c2c(C)cc(Br)cc2C(=O)NO)cc1 [Example 32, 5-Bromo-N-hydroxy-3-methyl-2-{methyl-[4-(4-methylamino-but-2-ynyloxy)-benzenesulfonyl]-amino}-benzamide]	643 nM	–	255 nM	58 nM	26%	–	15%
Cc1cc(Br)cc(C(=O)NO)c1N(C)S(=O)(=O)c1ccc(OCC#CCNCCCN(C)C)cc1 [Example 33, 5-Bromo-2-({4-[4-(3-dimethylamino-propylamino)-but-2-ynyloxy]-benzenesulfonyl}-methyl-amino)-N-hydroxy-3-methyl-benzamide]	1200 nM	–	908 nM	29 nM	32%	–	14%
Cc1cc(Br)cc(C(=O)NO)c1N(C)S(=O)(=O)c1ccc(OCC#CCNCCN(C)C)cc1 [Example 34, 5-Bromo-2-({4-[4-(2-dimethylamino-ethylamino)-but-2-ynyloxy]-benzenesulfonyl}-methyl-amino)-N-hydroxy-3-methyl-benzamide]	790 nM	–	383 nM	127 nM	39%	–	22%
COc1ccc(S(=O)(=O)N(C)c2c(C)cc(Br)cc2C(=O)NO)cc1 [Example 36, 5-Bromo-N-hydroxy-2-[(4-methoxy-benzenesulfonyl)-methyl-amino]-3-methyl-benzamide]	11 nM	–	21 nM	–	–	–	14%
CC#CCOc1ccc(S(=O)(=O)N(C)c2c(C)cc(-c3ccccc3)cc2C(=O)NO)cc1 [Example 43, 4-[(4-But-2-ynyloxy-benzenesulfonyl)-methyl-amino]-5-methyl-biphenyl-3-carboxylic acid hydroxyamide]	578 nM	4240 nM	518 nM	135 nM	–	–	76%

Second part, led by results:

IC50 (MMP-9)	IC50 (MMP-1)	IC50 (MMP-13)	IC50 [1]	inhibition at 10 µM (MMP-1)	Molecule	% Inhib. @ 3µM THP (THP-1 cells)	inhibition at 3 µM (THP-1 cells)
15 nM	113 nM	52 nM	11 nM	–	C#CCOc1ccc(S(=O)(=O)N(C)c2c(C)cc(Br)cc2C(=O)NO)cc1 [Example 53, 5-Bromo-N-hydroxy-3-methyl-2-[methyl-(4-prop-2-ynyloxy-benzenesulfonyl)-amino]-benzamide]	–	55%
304 nM	1620 nM	154 nM	–	–	CC#CCOc1ccc(S(=O)(=O)N(C)c2c(C)cc(Br)cc2C(=O)NO)cc1 [Example 54, 5-Bromo-2-[(4-But-2-ynyloxy-benzenesulfonyl)-methyl-amino]-N-hydroxy-3-methyl-benzamide]	–	84%
800 nM	1230 nM	289 nM	12 nM	–	CCC#CCOc1ccc(S(=O)(=O)N(C)c2c(C)cc(Br)cc2C(=O)NO)cc1 [Example 55, 5-Bromo-N-hydroxy-3-methyl-2-[methyl-(4-pent-2-ynyloxy-benzenesulfonyl)-amino]-benzamide]	–	48%
389 nM	–	701 nM	–	53%	CCCCC#CCOc1ccc(S(=O)(=O)N(C)c2c(C)cc(Br)cc2C(=O)NO)cc1 [Example 56, 5-Bromo-2-[(4-hept-2-ynyloxy-benzenesulfonyl)-methyl-amino]-N-hydroxy-3-methyl-benzamide]	–	16%
857 nM	–	321 nM	66 nM	–	Cc1cc(Br)cc(C(=O)NO)c1N(C)S(=O)(=O)c1ccc(OCC#Cc2ccccc2)cc1 [Example 59, 5-Bromo-N-hydroxy-3-methyl-2-{methyl-[4-(3-phenyl-prop-2-ynyloxy)-benzenesulfonyl]-amino}-benzamide]	–	20%
477 nM	3200 nM	83 nM	–	–	Cc1cc(Br)cc(C(=O)NO)c1N(C)S(=O)(=O)c1ccc(OCC#CCO)cc1 [Example 70, 5-Bromo-N-hydroxy-2-{[4-(4-hydroxy-but-2-ynyloxy)-benzenesulfonyl]-methyl-amino}-3-methyl-benzamide]	–	88%

— patent publication EP1144369B1 (Wyeth Holdings Corporation, priority 1999, dated 2000)
